We go through two molecules from patent US10717737B2, “Cyclopropylamines as LSD1 inhibitors” (Incyte Corporation, priority 2014, dated 2020).

Molecules are shown by their SMILES.

In the experiment the target is LSD1 (Homo sapiens (Human), UniProt O60341). The experiment in a line: biochemical.

Description: LANCE LSD1/KDM1A demethylase assay—10 μL of 1 nM LSD-1 enzyme (ENZO BML-SE544-0050) in the assay buffer (50 mM Tris, pH 7.5, 0.01% Tween-20, 25 mM NaCl, 5 mM DTT) were preincubated for 1 hour at 25° C. with 0.8 μL compound/DMSO dotted in black 384 well polystyrene plates. […] After stopping the reactions plates were incubated for 30 minutes and read on a PHERAstar FS plate reader (BMG Labtech).

The term IC50 denotes the concentration at which inhibition is half-maximal. A lower IC50 goes with inhibition by little substance. In turn, `N#Cc1ccc(CC2(CN[C@@H]3C[C@H]3c3ccccc3)CCN(CC3(C(=O)O)CC3)CC2)c(F)c1` [Example 74, 1-{[4-(4-cyano-2-fluorobenzyl)-4-({[(1R,2S)-2-phenylcyclopropyl]amino}methyl)piperidin-1-yl]methyl}cyclopropanecarboxylic Acid] had an IC50 of under 100 nM.

`COCC1(CN[C@@H]2C[C@H]2c2ccccc2)CCN(C(=O)N2CCC(O)CC2)CC1` [Example 112, 1-{[4-(methoxymethyl)-4-({[(1R,2S)-2-phenylcyclopropyl]amino}methyl)piperidin-1-yl]carbonyl}piperidin-4-ol]: the IC50 is under 100 nM.
